Measurements taken from US9447075B2, “Pyridazine derivatives as EAAT2 activators” (The Brigham and Women's Hospital, Inc., priority 2011, dated 2016).

How the values were obtained:
[1] = tested on: GFAP, GS, EAAT1, GAPDH, SOD1, actin, YB-1, RNA polymerase II, synaptophysin, EAAT3, EAAT4, PSD95, AKT, PI3K, IkB-α, ERK2; assay: Total protein and expression of other proteins (global protein synthesis); type: in vivo, mouse
Description: Furthermore, the following observations indicate that the effects of Compound 212320 on EAAT2 protein expression were not due to a general increase in protein synthesis. First, the total amount of protein in compound-treated cells and mice was not increased compared with that in vehicle-treated cells and mice. Secondly, we examined the expression of a variety of other proteins in mouse brains: astrocyte-specific proteins including GFAP, glutamine synthetase (GS), and EAAT1 (another astrocytic glutamate transporter subtype), several housekeeping proteins including GAPDH, SOD1, actin, YB-1, RNA polymerase II, several neuronspecific proteins including synaptophysin, EAAT3 (a neuronal glutamate transporter), EAAT4, PSD95, and several signaling proteins including AKT, PI3K, IkB-α and ERK2.

[2] = tested on: SOD1(G93A) mice; assay: ALS model (SOD1(G93A) mouse model); type: in vivo
Description: Guidelines established by the ENMC Group were followed (see Ludolph, A. C., et al. Guidelines for the preclinical in vivo evaluation of pharmacological active drugs for ALS/MND: report on the 142nd ENMC international workshop. Amyotroph Lateral Scler 8, 217-223 (2007))^1, which included the use of gender matched mice (i.e. equal number of males and females in each experimental group), use of littermate matched mice (i.e. the littermate of a therapeutic mouse is used in the control group) and use of mice with the same copy number of the SOD1 transgene. SOD1(G93A) mice received Compound 212320 (shown below, shown also as compound 7-4 in FIG. 1) at 40 mg/kg in 500 μl of 1% DMSO/1% polyethylene glycol 400/0.2% Tween 80/10% hydroxypropyl-β-cyclodextrin/saline starting at 84 days of age (6 times/week, at the same time each day) until death or harvested at 120-days of age for analysis. Western blotting, cresyl violet staining and immunofluorescence staining were performed as previously described in Chang, Y., et al. Messenger RNA oxidation occurs early in disease pathogenesis and promotes motor neuron degeneration in ALS. PLoS One 3, e2849 (2008).
Motor function was determined by measuring peak force using a digital grip dynamometer outfitted with a hind limb pull bar assembly (Columbus Instruments). Measurements started from 70 days of age (three times a week, on the same day of each week and at the same time of each scheduled day) until the mouse loses all strength. Six repetitions were conducted and the average was determined for each point. The examiners were unaware of the treatment of the mice. Food and water were placed on the cage floor when mice began to show motor deficits. […] This time point was recorded as the time of death for survival in days.
Referring to FIG. 2, Compound 212320 delayed motor function decline and extended life span in SOD1(G93A) mice. […] Data were analyzed using the dynamic fitting nonlinear regression analysis. […] Data were analyzed using Kaplan-Meier survival analysis. […] Spinal cords from 120-day-old mice were analyzed.

[3] = tested on: EAAT2; assay: [3H]glutamate uptake assay in PA-EAAT2 cells; type: cell-based, human; settings: PA-EAAT2 cells (FIG. 6D)
Procedure: (§1) Characterization and efficacy studies of a compound, Compound 212320 (FIG. 6A) is shown. […] In the absence of serum, PA-EAAT2 cells express low amounts of EAAT2 protein, although the recombinant EAAT2 mRNA are expressed (translational silencing); however, EAAT2 protein levels are increased when an activator is added to the culture (translational activation). This cell line was used for high-throughput screening to identify EAAT2 translational activators. To prioritize candidate compounds, we initially evaluated activation of EAAT2 protein in PA-EAAT2 cells. Promising compounds were further evaluated in primary dissociated neuron and astrocyte mixed cultures and then in mice. FIG. 6 presents the characterization of Compound 212320 in PA-EAAT2 cells. Compound 212320 increased EAAT2 protein levels in a dose—(FIG. 6B) and time—(FIG. 6C) dependent manner. Importantly, the induction occurred in a short amount of time (within 1-2 hr) and was sustained even up to 72 hr (data not show). Additionally, induction occurred at low nanomolar concentrations. […] (FIG. 6D).

[4] = molecular target: EphA4 (Homo sapiens, UniProt P54764); assay: Protein kinase profiling: EphA4; type: biochemical; settings: read-out: EphA4 inhibited
Chain of EphA4 (P54764 20-986, species assumed): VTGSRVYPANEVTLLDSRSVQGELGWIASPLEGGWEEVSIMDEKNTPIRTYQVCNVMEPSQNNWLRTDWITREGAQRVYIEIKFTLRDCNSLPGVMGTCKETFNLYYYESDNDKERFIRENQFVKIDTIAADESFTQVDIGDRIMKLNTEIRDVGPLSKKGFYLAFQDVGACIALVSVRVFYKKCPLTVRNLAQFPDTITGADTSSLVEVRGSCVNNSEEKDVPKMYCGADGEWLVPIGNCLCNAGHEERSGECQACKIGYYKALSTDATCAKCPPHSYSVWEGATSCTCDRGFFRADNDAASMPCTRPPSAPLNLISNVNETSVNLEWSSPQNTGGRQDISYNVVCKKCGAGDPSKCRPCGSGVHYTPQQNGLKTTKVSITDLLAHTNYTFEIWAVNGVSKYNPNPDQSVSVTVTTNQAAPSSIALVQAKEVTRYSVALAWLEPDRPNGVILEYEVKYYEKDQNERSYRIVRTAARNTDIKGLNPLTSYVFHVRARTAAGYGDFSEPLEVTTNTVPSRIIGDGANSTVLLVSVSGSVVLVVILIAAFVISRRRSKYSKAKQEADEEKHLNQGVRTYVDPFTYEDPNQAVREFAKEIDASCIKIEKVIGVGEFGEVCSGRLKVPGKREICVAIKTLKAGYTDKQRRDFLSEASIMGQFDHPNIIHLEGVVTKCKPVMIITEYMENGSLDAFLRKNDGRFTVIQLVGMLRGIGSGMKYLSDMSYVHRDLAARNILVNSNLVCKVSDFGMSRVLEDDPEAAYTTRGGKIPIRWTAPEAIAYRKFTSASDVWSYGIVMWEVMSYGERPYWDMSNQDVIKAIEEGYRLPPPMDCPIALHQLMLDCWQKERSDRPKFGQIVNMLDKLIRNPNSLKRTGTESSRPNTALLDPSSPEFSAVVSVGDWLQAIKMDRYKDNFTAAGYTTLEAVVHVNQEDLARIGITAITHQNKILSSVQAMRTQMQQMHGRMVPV
Procedure: To assess Compound 212320's biological activity and selectivity, we performed an in vitro side effect profiling study. Seventy-one targets were tested at 10 μM in duplicate. These targets include neurotransmitter related receptors (30), steroids (2), ion channels (6), second messenger (1), prostaglandins (3), growth factors/hormones (4), brain/gut peptides (13), enzymes (5) and cytochrome p450 (7). […] Additionally, we performed a protein kinase profiling study. Compound 212320 was tested at 1 and 10 μM against 288 kinases. […] These studies indicate that Compound 212320 has high specificity and low side-effects/toxicity potential.

[5] = tested on: EAAT2; assay: EAAT2 protein levels and glutamate uptake in forebrain plasma membrane vesicles after i.p. administration; type: in vivo, mouse; settings: for EAAT2 protein levels increase / Glutamate uptake increase: single i.p. 40 mg/kg
Procedure: (§2) We next examined EAAT2 protein levels and glutamate uptake activities in brain following i.p. administration of Compound 212320 in C57BL/6 mice. Plasma membrane vesicles were prepared from mouse forebrains to measure functional EAAT2 protein. After a single i.p. dose of Compound 212320 at 40 mg/kg, EAAT2 protein levels and associated glutamate uptake increased to ˜1.5-2-fold at 2 hr and to ˜2-3-fold from 8 hr to 24 hr post-injection (FIG. 8B). Even at 72 hr, a ˜1.5 fold increase in EAAT2 protein levels could still be detected (data not shown). In addition, Compound 212320-induced EAAT2 protein levels and glutamate uptake were both dose-dependent (FIG. 8C). This induction was not due to transcriptional activation because EAAT2 mRNA was not increased as measured by quantitative real-time RT-PCR (FIG. 8D). We compared ceftriaxone (200 mg/kg), which increases EAAT2 expression through transcriptional activation, with Compound 212320 (40 mg/kg) that activates EAAT2 translation.

[6] = tested on: EAAT2 mRNA; assay: EAAT2 mRNA in brain by quantitative real-time RT-PCR after i.p. administration; type: in vivo, mouse; settings: FIG. 8D
Procedure: as §2

[7] = tested on: EAAT2 mRNA; assay: Quantitative real-time RT-PCR of EAAT2 mRNA in PA-EAAT2 cells; type: cell-based, human; settings: PA-EAAT2 cells (FIG. 6F)
Procedure: as §1

[8] = i.p., 40 mg/kg daily from 84 days of age
[9] = from 8 hr to 24 hr post-injection

## Cc1ccccc1CSc1ccc(-c2ccccn2)nn1 [Compound 7-4]
[1]; FIG. 8F
  Induction of other proteins in mouse brains: None of the above proteins were induced
[1]; compound-treated cells and mice
  Total amount of protein vs vehicle: not increased
[2]; 120-day-old mice
  EAAT2 protein levels in spinal cord (western blot): restores
[2]; [8]
  Life span (survival): extended
  Motor function decline (grip strength): delayed
[3]
  Glutamate uptake function: correlated to increased EAAT2 protein levels
[4]
  inhibition at 10 µM: 44%
[5]; 40 mg/kg vs ceftriaxone 200 mg/kg, a single dose after 24 hr
  EAAT2 induction compared with ceftriaxone: greater EAAT2 induction than ceftriaxone
[5]; FIG. 8C
  Induced EAAT2 protein levels, dose dependence: dose-dependent
  Induced glutamate uptake, dose dependence: dose-dependent
[5]; 2 hr post-injection
  EAAT2 protein levels increase: 1.5-2 fold
  Glutamate uptake increase: 1.5-2 fold
[5]; 72 hr, data not shown
  EAAT2 protein levels increase: ~1.5 fold
[5]; [9]
  EAAT2 protein levels increase: 2-3 fold
  Glutamate uptake increase: 2-3 fold
[6]
  EAAT2 mRNA: not increased
[7]
  EAAT2 mRNA levels: not changed
